According to patent publication US9540325B2, “N1-cyclic amine-N5-substituted phenyl biguanide derivatives, methods of preparing the same and pharmaceutical composition comprising the same” (Immunomet Therapeutics, Inc., priority 2011, dated 2017):

Tests used:
[1] = Solubility in water of hydrochloride and acetate salts; type: physicochemical; conditions: room temperature
Protocol: The solubilities in water of the hydrochlorides prepared in Examples 26, 27, 32, 33, 48, 49, 53 and 54, and the solubilities in water of the acetates prepared in Examples 70 to 77, were compared.
The experimental conditions and methods are described, as follows.
1) 1 ml of distilled water is added to a container including 5 mg of salt at room temperature.
2) The resulting mixture is stirred for 10 minutes, and then kept at room temperature for 1 hour.
3) Undissolved residual salt is recovered and weighed.
4) The ratio of the amount of the recovered salt and the amount of the dissolved salt is calculated.
5) Operations 1) to 4) are repeatedly performed with increasing amount (i.e., 10, 15, 20, 25 and 30 mg) of salt.
The experimental procedures were performed for each of the hydrochlorides of Examples 26, 27, 32, 33, 48, 49, 53 and 54 and the acetates of Examples 70 to 77. The comparative solubilities obtained using the hydrochlorides of Examples 26, 27, 32, 33, 48, 49, 53 and 54 and the acetates of Examples 70 to 77 are listed in the following Table 1.

AMPKα = test: Measurement of AMPK activation effect (AMPKα Thr172 phosphorylation immunoassay) in MCF7 cells; type: cell-based, human; conditions: 24 hours; for AMPK activation effect at 10 μM (%) / AMPK activation effect at 50 μM (%): relative to untreated cells; for AMPK activation effect AC150: concentration at which AMPK activation reached 150%
Protocol: MCF7 cells derived from human breast cancer cells (commercially available from the Korean Cell Line Bank) were used, and the AMPK activation effect of the biguanide derivative was confirmed using an AMPKα immunoassay kit (Invitrogen, Catalog No. KHO0651).
MCF7 cells were cultured in a DMEM medium supplemented with 10% fetal bovine serum. Thereafter, the cultured MCF7 cells were put into a 6-well plate with approximately 5×10^5 cells per well and cultured in an incubator supplied with 5% CO2. Culture media were treated with the derivatives synthesized in the examples at contents of 5, 10 and 50 μM, and then cultured for 24 hours. Metformin hydrochloride was used as the control, and the culture media were treated with 0.05, 0.5, 1, 2, 5 and 10 mM metformin hydrochloride, and then tested in the same manner as described in the derivatives synthesized in the examples. Subsequently, the cells were lysed according to a method presented in the operation manual of the AMPKα immunoassay kit, and 20 μg of a cell lysate was then yielded through protein assay. Thereafter, the AMPK activation effect was obtained by determining the degree of phosphorylation of 172nd threonine residue (Thr172) of the AMPKα from the cell lysate according to the method presented in the operation manual of the AMPKα immunoassay kit. […] A curve graph showing AMPK activation according to the concentration of the treated compounds was plotted based on the obtained AMPKα activation results, the concentration (activation concentration 150, AC150) value of the compound whose AMPK activation reached 150% was calculated using a GraphPad Prism 5.0 program, and the degrees of AMPK activation were obtained when concentrations of the treated biguanide derivatives were 10 μM and 50 μM and the metformin hydrochloride was 50 μM

HCT116 cells = test: Measurement of effect of inhibiting cancer cell proliferation (MTT); type: cell-based, human; conditions: Homo sapiens; for inhibition at 100 µM: HCT-116, 100 μM, 48 hours, read-out: Cell Growth Inhibition (%) at 100 μM; for GI50: HCT-116, 48 h
From the text: HCT116 cells derived from human colorectal cancer (commercially available from the Korean Cell Line Bank) were used, and the effect of inhibiting cancer cell proliferation of the biguanide derivative was confirmed by measuring the concentration value (cell growth inhibition concentration, GIC50) at which cell growth was inhibited by 50% using a 3-(4,5-dimethylthiazol-2-yl)-2,5-diphenyltetrazolium bromide (MTT) reagent.
First, HCT116 cells were put on a 96-well plate and cultured in a DMEM medium containing 10% fetal bovine serum for 16 hours so that the cellcount in each well was approximately 5,000. Subsequently, to obtain the GIC50 value of each compound, culture media were treated with 100 μM, 25 μM, 6.25 μM, 1.56 μM or 0.39 μM of the compound, and then cultured for 48 hours. Metformin hydrochloride was used as the control, and the culture media were treated with 25, 12.5, 2.5, 0.5, 0.1 mM metformin hydrochloride, and then tested in the same manner as described in the derivatives synthesized in the examples. In order to determine whether the cells survived after treatment with the compounds, MTT was added to the culture media which were then cultured for another 3 hours. Formed formazane crystals were dissolved using dimethyl sulfoxide (DMSO), and the absorbance of the resulting solution was measured at 560 nm. After the 48-hour culture, […] was indicated as cell viability (%) according to each treated concentration. A cell viability curve graph was plotted and the concentration (GIC50) value of the compound at which the growth was inhibited by 50% was calculated to confirm the inhibition effect of cancer cell proliferation. Also, the cell growth viability (%) when the concentration of the treated biguanide derivative and the metformin hydrochloride as the control were 100 μM was shown.

[2] = content 5 mg/1 ml distilled water
[3] = content 10 mg/1 ml distilled water

| Structure (SMILES) | Solubility in water (%), acetate salt [1, 2] | Solubility in water (%), acetate salt [1, 3] | Solubility in water (%), acetate salt ([1]; content 15 mg/1 ml distilled water) | Solubility in water (%), acetate salt ([1]; content 20 mg/1 ml distilled water) | AMPK activation effect at 10 μM (%) (AMPKα) | AMPK activation effect AC150 (AMPKα) | melting point | AMPK activation effect at 50 μM (%) (AMPKα) | inhibition at 100 µM (HCT116 cells) | GI50 (HCT116 cells) |
| --- | --- | --- | --- | --- | --- | --- | --- | --- | --- | --- |
| N=C(NC(=N)N1CCCC1)Nc1ccc(C(F)(F)F)c(F)c1 [Example 74, N1-pyrrolidine-N5-(3-fluoro-4-trifluoromethyl)phenyl biguanide acetate] | 100% | 100% | 100% | 50% | 461% | 3.4 µM | – | – | – | – |
| Cl.N=C(NC(=N)N1CCCCC1)Nc1cccc(O)c1 [Example 11, N1-piperidine-N5-(3-hydroxy)phenyl biguanide hydrochloride] | – | – | – | – | 127% | >50 µM | 210 to 212 °C | 127% | 29.7% | > 100 µM |
| N=C(NC(=N)N1CCCCC1)Nc1ccc(OC(F)(F)F)c(F)c1 [Example 77, N1-piperidine-N5-(3-fluoro-4-trifluoromethoxy)phenyl biguanide acetate] | 100% | 50% | – | – | – | – | – | – | – | – |
| Cl.N=C(NC(=N)N1CCCCC1)Nc1ccc(F)c(OC(F)(F)F)c1 [Example 50, N1-piperidine-N5-(4-fluoro-3-trifluoromethoxy)phenyl biguanide hydrochloride] | – | – | – | – | 127% | >50 µM | 260 to 261 °C | – | 97% | 3.9 µM |
| Cl.N=C(NC(=N)N1CCCCC1)Nc1cc(Cl)cc(OC(F)(F)F)c1 [Example 65, N1-piperidine-N5-(3-chloro-5-trifluoromethoxy)phenyl biguanide hydrochloride] | – | – | – | – | – | 5.0 µM | 208 to 209 °C | – | 97.3% | 3.6 µM |
| Cl.N=C(NC(=N)N1CCCCC1)Nc1cccc(C(F)(F)F)c1 [Example 24, N1-piperidine-N5-(3-trifluoromethyl)phenyl biguanide hydrochloride] | – | – | – | – | 388% | 2.6 µM | 264 to 265 °C | – | 97.6% | 6.9 µM |
| Cl.N=C(NC(=N)N1CCCC1)Nc1cccc(Cl)c1 [Example 19, N1-pyrrolidine-N5-(3-chloro)phenyl biguanide hydrochloride] | – | – | – | – | 176% | 4.4 µM | 170 to 172 °C | 586% | 74% | 55.9 µM |
| CSc1ccc(NC(=N)NC(=N)N2CCCCC2)cc1.Cl [Example 43, N1-piperidine-N5-(4-methylthio)phenyl biguanide hydrochloride] | – | – | – | – | 239% | 4.1 µM | 264 to 265 °C | 547% | 98% | 37.1 µM |
| Cl.N=C(NC(=N)N1CCCCC1)Nc1cc(Br)cc(OC(F)(F)F)c1 [Example 67, N1-piperidine-N5-(3-bromo-5-trifluoromethoxy)phenyl biguanide hydrochloride] | – | – | – | – | – | 5.0 µM | 205 to 207 °C | – | 97.1% | 2.9 µM |
| CC(=O)Nc1cccc(NC(=N)NC(=N)N2CCCCC2)c1.Cl [Example 39, N1-piperidine-N5-(3-acetamide)phenyl biguanide hydrochloride] | – | – | – | – | 100% | >50 µM | 265 to 267 °C | 145% | 25.5% | > 100 µM |
| Cl.N=C(NC(=N)N1CCCCC1)Nc1c(F)cc(F)cc1F [Example 69, N1-piperidine-N5-(2,4,6-trifluoro)phenyl biguanide hydrochloride] | – | – | – | – | 131% | 42.0 µM | 243 to 244 °C | 156% | 21.5% | > 100 µM |
| Cl.N=C(NC(=N)N1CCCCC1)Nc1cccc(CO)c1 [Example 12, N1-piperidine-N5-(3-hydroxymethyl)phenyl biguanide hydrochloride] | – | – | – | – | 107% | >50 µM | 225 to 227 °C | 149% | 17.6% | > 100 µM |
| Cl.N=C(NC(=N)N1CCCCC1)Nc1ccc(F)cc1F [Example 58, N1-piperidine-N5-(2,4-difluoro)phenyl biguanide hydrochloride] | – | – | – | – | 131% | 16.5 µM | 256 to 257 °C | 265% | 37.4% | > 100 µM |
| Cl.N=C(NC(=N)N1CCCCC1)Nc1ccc(Cl)c(OC(F)(F)F)c1 [Example 51, N1-piperidine-N5-(4-chloro-3-trifluoromethoxy)phenyl biguanide hydrochloride] | – | – | – | – | 160% | 7.8 µM | 251 to 252 °C | – | 96.3% | 1.9 µM |
| Cl.N=C(NC(=N)N1CCC1)Nc1ccc(C(F)(F)F)cc1 [Example 25, N1-azetidine-N5-(4-trifluoromethyl)phenyl biguanide hydrochloride] | – | – | – | – | 99% | 46.6 µM | 258 to 259 °C | 156% | 96.3% | 27.6 µM |
| Cl.N=C(NC(=N)N1CCOCC1)Nc1cccc(Br)c1 [Example 22, N1-morpholine-N5-(3-bromo)phenyl biguanide hydrochloride] | – | – | – | – | 127% | 2.3 µM | 264 to 265 °C | 119% | 44.5% | > 100 µM |
| COc1cccc(NC(=N)NC(=N)N2CCCCC2)c1.Cl [Example 13, N1-piperidine-N5-(3-methoxy)phenyl biguanide hydrochloride] | – | – | – | – | 97% | 16.0 µM | 230 to 232 °C | 300% | 45.4% | > 100 µM |
| Cl.N=C(NC(=N)N1CCCC1)Nc1cc(Br)cc(OC(F)(F)F)c1 [Example 66, N1-pyrrolidine-N5-(3-bromo-5-trifluoromethoxy)phenyl biguanide hydrochloride] | – | – | – | – | 521% | 5.0 µM | 241 to 242 °C | – | 97.6% | 6.8 µM |
